In patent US20260055126A1, “SMALL MOLECULE COMPOUNDS WITH PHOSPHORYLATED ARYL STRUCTURES AND USE THEREOF” (HANGZHOU PHECDAMED CO., LTD., priority 2022, published 2026):
pIC50: −log10 of the molar value. Read-outs that look alike come from different tables or passages of the source.

Tests used:
[1] = target: recombinant TEAD1 protein central pocket (Homo sapiens (Human), UniProt P28347); test: Competitive thiol binding assay (CPM assay), TEAD1; settings: 150 nM recombinant TEAD protein, 150 nM CPM
Method: (§1) Diluting the tested compound in gradient to 5 uL with buffer (25 mM HEPES, 150 mM NaCl, pH6.5), then adding 5 μL of the newly prepared 0.45 uM recombinant TEAD protein solution, and incubating at room temperature for 10 minutes. […] After shaking the plate at room temperature for 1 hour, measuring the fluorescence intensity (Ex/Em: 380/470 nm).

[2] = tested on: TEAD family proteins; test: Thermal shift assay, summary over all TEAD subtypes; assay type: binding; settings: summary of Table 1
Method: (§2) The ability of the compounds to increase the melting point of purified recombinant TEAD1/2/3/4 proteins is tested using a thermal shift assay. The strength of the compound's binding to the protein and the selectivity of the compound's binding to the four TEAD subtypes are evaluated by calculating the melting point shift ΔTm−° C. […] Based on the Δ Tm value, the ability of the compound to bind to the TEAD protein is divided into four levels: ++++, +++, ++, +.
(§3) Test method of protein melting point curve: 10 μL of the protein melting point curve experimental system (10 μM TEAD protein, 50 μM test compound, SYPRO® orange (55692, sigma)) is prepared in a 384-well fluorescence quantitative PCR plate according to the following system, and reacted at 4° C. in the dark for 20 minutes. On-machine reaction: ABI QuantStudio Dx fluorescence quantitative PCR instrument; program: from 25° C. to 80° C., increasing the temperature at a rate of 0.05° C./s, and reading the fluorescence channel signal of the corresponding wavelength of SYPRO® orange every second.

[3] = target: recombinant TEAD4 protein central pocket (Homo sapiens (Human), UniProt Q15561); test: Competitive thiol binding assay (CPM assay), TEAD4; settings: 150 nM recombinant TEAD protein, 150 nM CPM
Method: as §1

[4] = tested on: recombinant TEAD1 protein (194-411, Uniprot ID: P28347); test: Thermal shift assay (protein melting point curve), TEAD1; assay type: binding; set-up: key to the marks not given beside the values; settings: 10 μM TEAD protein, 50 μM test compound
Method: as §2, §3

[5] = target: recombinant TEAD2 protein central pocket (Homo sapiens (Human), UniProt Q15562); test: Competitive thiol binding assay (CPM assay), TEAD2; settings: 150 nM recombinant TEAD protein, 150 nM CPM
Method: as §1

[6] = target: recombinant TEAD2 protein (218-447, Uniprot ID: Q15562) (Homo sapiens (Human), UniProt Q15562); test: Thermal shift assay (protein melting point curve), TEAD2; assay type: binding; settings: 10 μM TEAD protein, 50 μM test compound
Method: as §2, §3

[7] = target: recombinant TEAD4 protein (217-434, Uniprot ID: Q15561) (Homo sapiens (Human), UniProt Q15561); test: Thermal shift assay (protein melting point curve), TEAD4; assay type: binding; settings: 10 μM TEAD protein, 50 μM test compound
Method: as §2, §3

[8] = target: recombinant TEAD3 protein (218-435, Uniprot ID: Q99594) (Homo sapiens (Human), UniProt Q99594); test: Thermal shift assay (protein melting point curve), TEAD3; assay type: binding; settings: 10 μM TEAD protein, 50 μM test compound
Method: as §2, §3

[9] = target: recombinant TEAD3 protein central pocket (Homo sapiens (Human), UniProt Q99594); test: Competitive thiol binding assay (CPM assay), TEAD3; settings: 150 nM recombinant TEAD protein, 150 nM CPM
Method: as §1

[10] = Mouse plasma pharmacokinetic test; assay type: in vivo, CD-1 mice; settings: CD-1, mouse, plasma, VT103 in mice
Source text: In this example, different compounds are used to perform a mouse pharmacokinetic experiment, and the specific steps are as follows: Animal information: CD-1 mice, male, about 20 g, purchase from Beijing Weitonglihua Experimental Animal Technology Co., Ltd.
Animal dietary status: Animals are not fasted before administration and allowed to drink water freely.
Compound preparation method: for intragastric administration (IG)(G1 group), preparing with 0.5% CMC-Na, and for intravenous injection(IV) (G2 group), preparing 5% DMSO+30% PEG400+65% water. […]
Sampling time points of G1 group: 8 points in total, namely 10 min, 30 min, 1 h, 2 h, 4 h, 6 h, 8 h and 24 h after administration, among them, animals G1M01-G1M03 are sampled at 3 time points, namely 10 min, 1 h and 6 h; animals G1M04-G1M06 are sampled at 3 time points, namely 30 min, 2 h and 8 h; animals G1M07-G1M09 are sampled at 2 time points, namely 4 h and 24 h.
Sampling time points of G2 group: 9 points in total, namely 5 min, 10 min, 30 min, 1 h, 2 h, 4 h, 6 h, 8 h, 24 h after administration. It is recommended that animals G2M01-G2M03 are sampled at 3 time points, namely 5 min, 1 h, and 6 h; animals G2M04-G2M06 are sampled at 3 time points, namely 10 min, 2 h, and 8 h; animals G2M07-G2M09 are sampled at 3 time points, namely 30 min, 4 h, and 24 h.
Sample collection: On the day of the experiment, collecting approximately 0.1 mL of whole blood samples at each preset time point and placing in EDTA-K2 anticoagulant tubes.
Sample processing: Within 30 minutes after whole blood sample collection, centrifuging at 4° C., 12,000 rpm for 5 minutes to separate plasma, collecting the upper plasma sample into a sample tube, and freezing the plasma sample in a −10˜−30° C. refrigerator within 30 minutes and transferring to a −60˜−90° C. refrigerator within 24 hours.
Sample testing and data processing: LC/MS/MS testing, WinNonlin for fitting and pharmacokinetic parameter calculation.

recombinant TEAD1 protein central pocket, sequence (P28347 whole entry): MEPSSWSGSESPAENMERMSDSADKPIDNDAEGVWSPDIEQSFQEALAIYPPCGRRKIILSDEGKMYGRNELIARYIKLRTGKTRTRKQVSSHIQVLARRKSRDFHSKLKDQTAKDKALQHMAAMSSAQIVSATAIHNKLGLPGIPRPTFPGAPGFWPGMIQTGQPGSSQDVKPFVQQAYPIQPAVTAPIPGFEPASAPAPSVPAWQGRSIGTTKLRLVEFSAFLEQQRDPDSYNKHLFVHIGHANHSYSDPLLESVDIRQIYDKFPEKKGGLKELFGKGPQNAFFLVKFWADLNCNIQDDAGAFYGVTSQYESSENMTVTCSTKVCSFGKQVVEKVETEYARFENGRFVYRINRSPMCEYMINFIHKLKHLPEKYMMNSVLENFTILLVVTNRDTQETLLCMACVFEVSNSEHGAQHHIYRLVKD
recombinant TEAD4 protein central pocket, sequence (Q15561 whole entry): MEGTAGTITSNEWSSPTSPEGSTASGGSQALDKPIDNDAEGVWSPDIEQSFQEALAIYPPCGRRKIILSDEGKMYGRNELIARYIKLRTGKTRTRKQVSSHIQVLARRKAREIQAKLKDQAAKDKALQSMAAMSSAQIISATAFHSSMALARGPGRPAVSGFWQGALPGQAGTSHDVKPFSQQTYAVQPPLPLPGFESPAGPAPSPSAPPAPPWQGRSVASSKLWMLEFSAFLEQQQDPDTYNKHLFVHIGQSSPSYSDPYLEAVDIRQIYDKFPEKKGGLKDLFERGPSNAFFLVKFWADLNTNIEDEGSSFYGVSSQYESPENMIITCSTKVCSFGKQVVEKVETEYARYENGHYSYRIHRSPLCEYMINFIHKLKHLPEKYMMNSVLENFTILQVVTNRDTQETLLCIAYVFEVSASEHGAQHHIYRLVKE
recombinant TEAD2 protein central pocket, sequence (Q15562 whole entry): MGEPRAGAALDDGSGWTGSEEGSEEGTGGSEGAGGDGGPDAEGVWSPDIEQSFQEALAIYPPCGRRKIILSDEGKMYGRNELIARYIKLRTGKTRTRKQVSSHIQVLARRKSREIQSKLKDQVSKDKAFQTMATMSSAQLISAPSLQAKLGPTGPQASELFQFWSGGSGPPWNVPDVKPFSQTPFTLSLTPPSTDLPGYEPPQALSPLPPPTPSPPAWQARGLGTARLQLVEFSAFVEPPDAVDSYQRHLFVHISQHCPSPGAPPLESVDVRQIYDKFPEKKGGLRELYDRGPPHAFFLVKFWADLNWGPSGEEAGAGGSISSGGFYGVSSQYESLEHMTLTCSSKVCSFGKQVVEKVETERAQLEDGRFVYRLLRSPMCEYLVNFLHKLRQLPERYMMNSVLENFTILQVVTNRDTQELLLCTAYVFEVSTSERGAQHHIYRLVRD
recombinant TEAD2 protein (218-447, Uniprot ID: Q15562), sequence (Q15562 218-447): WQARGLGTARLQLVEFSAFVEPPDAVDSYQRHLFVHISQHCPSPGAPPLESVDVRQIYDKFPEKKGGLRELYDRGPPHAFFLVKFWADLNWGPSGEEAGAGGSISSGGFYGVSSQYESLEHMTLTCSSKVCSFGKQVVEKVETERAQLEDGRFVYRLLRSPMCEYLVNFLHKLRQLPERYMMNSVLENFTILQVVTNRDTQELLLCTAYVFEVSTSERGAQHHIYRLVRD
recombinant TEAD4 protein (217-434, Uniprot ID: Q15561), sequence (Q15561 217-434): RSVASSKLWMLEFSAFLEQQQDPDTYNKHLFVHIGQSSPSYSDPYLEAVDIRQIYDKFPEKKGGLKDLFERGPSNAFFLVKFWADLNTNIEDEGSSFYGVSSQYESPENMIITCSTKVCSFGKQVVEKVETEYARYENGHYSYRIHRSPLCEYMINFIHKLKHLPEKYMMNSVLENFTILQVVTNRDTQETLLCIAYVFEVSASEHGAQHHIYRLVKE
recombinant TEAD3 protein (218-435, Uniprot ID: Q99594), sequence (Q99594 218-435): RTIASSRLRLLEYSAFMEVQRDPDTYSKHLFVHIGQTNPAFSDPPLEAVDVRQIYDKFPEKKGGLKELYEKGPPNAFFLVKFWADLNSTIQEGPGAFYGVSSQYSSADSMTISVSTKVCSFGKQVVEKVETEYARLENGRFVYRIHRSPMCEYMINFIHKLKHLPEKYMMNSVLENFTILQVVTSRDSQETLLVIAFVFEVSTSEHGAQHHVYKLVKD
recombinant TEAD3 protein central pocket, sequence (Q99594 whole entry): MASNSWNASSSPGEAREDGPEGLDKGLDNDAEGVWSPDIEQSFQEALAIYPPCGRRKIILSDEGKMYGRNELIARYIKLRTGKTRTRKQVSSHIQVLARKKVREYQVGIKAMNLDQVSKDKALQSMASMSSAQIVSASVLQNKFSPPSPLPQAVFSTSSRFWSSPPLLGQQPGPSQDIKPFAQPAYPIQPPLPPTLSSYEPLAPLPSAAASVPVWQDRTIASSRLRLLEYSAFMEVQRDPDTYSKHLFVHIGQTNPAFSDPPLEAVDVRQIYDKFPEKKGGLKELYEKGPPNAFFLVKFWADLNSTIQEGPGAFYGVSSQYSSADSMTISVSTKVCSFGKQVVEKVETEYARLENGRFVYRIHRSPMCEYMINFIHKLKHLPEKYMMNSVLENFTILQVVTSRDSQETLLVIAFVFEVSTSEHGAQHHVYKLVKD

Compound	pIC50 [1]	binding ability to each subtype of TEAD family proteins [2]	pIC50 [3]	Δ T m (TEAD1) [4]	pIC50 [5]	Δ T m (TEAD2) [6]	Δ T m (TEAD4) [7]	Δ T m (TEAD3) [8]	pIC50 [9]	concentration at 24 h ([10]; oral, IG 7 mg/kg, converted from ng/ml, read-out: blood concentration after 24 hours) [nM]	bioavailability ([10]; po, 7 mg/kg) [%]	concentration at 24 h ([10]; 7 mg/kg oral/IG, read-out: plasma drug concentration after 24 hours C24h) [ng/mL]	clearance ([10]; IV) [mL/min/kg]	half-life ([10]; IV) [h]	Vd ([10]; IV, read-out: VSS) [L/kg]	Cmax ([10]; per oral (PO) 7 mg/kg, read-out: Cmax) [ng/mL]
O=P1(c2ccc(Nc3ccc(C(F)(F)F)cc3)c(-c3ncccn3)c2)CC(CO)C1 (stereo not shown) [Compound 21]	6.70	good binding abilities	6.96	++++	6.51	++++	++++	+++								
CCP(=O)(CC)c1ccc(Nc2ccc(C(F)(F)F)cc2)c(-c2cn(C)cn2)c1 [Compound 76]	6.47	good binding abilities	6.66	++++	6.28	++++	++++	+++	6.15							
CNS(=O)(=O)c1ccc(Nc2ccc(C(F)(F)F)cc2)c(-c2cn(C)cn2)c1 [VT103, reference compound]	5.92		5.60		6.06				5.57	828	75	340	4.7	13.2	4.5	896
